Data as given in US20030228365A1, “Pharmaceutical formulation” (priority 2002, published 2003).
Where a SMILES comes first, the peptide text is derived from it.

Description: A sample of the compound of formula (Ia) in PLG gel was dissolved in aqueous acetonitrile and further diluted with water. The precipitated polymer was subsequently removed by filtration through a membrane filter. The concentration of the compound of formula (Ia) in the filtrate was determined by HPLC.

- degradation found by HPLC: no extensive degradation
SMILES: CCC[C@H](NC(=O)[C@@H](NC(=O)[C@H](NC(=O)[C@@H](NC(=O)CNC(=O)CN(C)C(C)=O)C(C)C)[C@H](C)CC)[C@@H](C)O)C(=O)N[C@H](C(=O)N[C@@H](CCCN=C(N)N)C(=O)N1CCC[C@H]1C(=O)NCC)[C@@H](C)CC [compound of formula (Ia), N-Ac-Sar-Gly-Val-DIle-Thr-Nva-Ile-Arg-ProNHCH2CH3] (HELM PEPTIDE1{[ac].[Sar].G.V.[dI].T.[Nva].I.R.P.[CCN[*:1]]}$$$$V2.0)
